From patent US20230173018A1, “CASPOFUNGIN DERIVATIVES AND ASSAYS FOR EVALUATING ANTIFUNGAL TREATMENT EFFICACY” (priority 2020, published 2023)
≈ marks a conversion by molar mass, not a printed value. Where two headings read alike, the source gives them in different places.

Columns and labels:
Assay type in all cases: cell-based
C. glabrata TGL00065 = test: microbe, parasite or virus in culture
Excerpt: (§1) The antifungal activities of compounds 1a, 1 and 2 (collectively: caspofungin derivatives) were compared to that of caspofungin and CSF-BOD using a panel of 49 C. albicans and C. glabrata strains (Tables 1 and 2). The panel included ATCC strains and clinical isolates as well a collection of caspofungin-responsive strains and their corresponding isogenic caspofungin-resistant derivatives, constructed by introducing point mutations within and near the defined hotspots in the FKS1 and/or FKS2 genes of the GS complex. Minimal inhibitory concentration (MIC) values for all strains were determined using the broth double dilution method and are summarized in FIG. 2 and Table 2. […] The clinical breakpoints (threshold) for caspofungin-resistance in C. albicans and C. glabrata are 1 μg/mL and 0.5 μg/mL, respectively.

[1] = test system: C. albicans T-2074 (DP-122); test: microbe, parasite or virus in culture
Excerpt: as §1

[2] = test system: C. glabrata T-985 (11-076); test: microbe, parasite or virus in culture
Excerpt: as §1

C. glabrata TGL00258 = test: microbe, parasite or virus in culture
Excerpt: as §1

C. albicans CG72 = test: microbe, parasite or virus in culture
Excerpt: as §1

[3] = test system: C. albicans T-2068 (DP-C42); test: microbe, parasite or virus in culture
Excerpt: as §1

C. glabrata TGL00256 = test: microbe, parasite or virus in culture
Excerpt: as §1

[4] = test system: C. albicans DPL1015 (DP-A15); test: microbe, parasite or virus in culture
Excerpt: as §1

C. albicans CAF2-1 = test: microbe, parasite or virus in culture
Excerpt: as §1

C. glabrata CST78 = test: microbe, parasite or virus in culture
Excerpt: as §1

[5] = test system: C. albicans T-2069 (DP-85); test: microbe, parasite or virus in culture
Excerpt: as §1

C. glabrata TGL00294 = test: microbe, parasite or virus in culture
Excerpt: as §1

C. glabrata TGL00293 = test: microbe, parasite or virus in culture
Excerpt: as §1

C. glabrata TGL00265 = test: microbe, parasite or virus in culture
Excerpt: as §1

C. glabrata TGL00054 = test: microbe, parasite or virus in culture
Excerpt: as §1

[6] = test system: panel of 49 C. albicans and C. glabrata strains; test: Antifungal activity (MIC) compared to caspofungin over the panel; settings: for antifungal activity spectrum: resistant vs responsive strains of the panel; for antifungal activity based on MIC values: panel of 49 strains; for MIC values higher than the parent caspofungin: ratio to caspofungin MIC, FIG. 2, Table 2
Excerpt: as §1, with “Minimal inhibitory concentration (MIC) values for all strains were determined using the broth double dilution method and are summarized in FIG. 2 and Table 2.” left out, “respectively. […]” for “respectively.”

[7] = test system: C. albicans SC5314 and SN152; test: Competition for cellular uptake with probe 1, flow cytometry; settings: added simultaneously with probe 1; caspofungin 1 μM, 10 μM; fluconazole 10 μM
Method: To determine if caspofungin competes for cellular uptake with fluorescent probe 1, both the drug and the probe were added simultaneously to cultures of strains SC5314 and SN152. The uptake of probe 1 was measured by flow cytometry every 15 minutes for 1 hour (FIG. 6B). […] No effect on the uptake of probe 1 was detected in cells co-treated with the antifungal azole drug fluconazole, which inhibits the biosynthesis of fungal membrane sterol, ergosterol.

C. albicans SC5314 cells = test: Cell viability by propidium iodide (PI) staining, PBS vs YPAD; settings: 1 μM
Method: To determine whether the caspofungin relocalization and apparent cell damage and death is a feature of caspofungin (and not only of the fluorescent caspofungin probe 1), cell viability was followed using propidium iodide (PI), a dye normally excluded from metabolically active cells.
Cell viability was compared in the presence and absence of 1 μM unlabeled caspofungin, using cells incubated either in PBS or in YPAD. […] Thus, cells exposed to caspofungin in nutrient-rich conditions become permeable to PI, an indicator of cell death. This observation explains the non-specific distribution of probe 1 in the cytoplasm after prolonged incubation (FIG. 7A). It is also consistent with the idea that plasma membrane permeabilization and cell death are likely accompanied by the loss of structural integrity of organelles, including the vacuoles detected here.

[8] = strain no. 27, TGL00065, FKS mutant
[9] = strain no. 12, T-2074 (DP-122), clinical isolate, FKS1 HS1-P649H mutation
[10] = strain no. 49, T-985 (11-076), clinical isolate
[11] = strain no. 25, TGL00258, parental CST34, FKS mutant
[12] = strain no. 7, CG72, parental CAM, pKE1:GFP-YPT72
[13] = strain no. 4, T-2068 (DP-C42), parental SC5314, FKS1 HS1-F641S mutation
[14] = strain no. 24, TGL00256, parental CST34, FKS mutant
[15] = strain no. 2, DPL1015 (DP-A15), parental SC5314, FKS1 mutant HS1-S645S/P
[16] = strain no. 10, CAF2-1, parental SC5314
[17] = strain no. 26, C. glabrata CST78
[18] = strain no. 14, T-2069 (DP-85), clinical isolate, FKS1 HS1-S645F mutation
[19] = strain no. 38, TGL00294, parental BG2, FKS mutant
[20] = strain no. 37, TGL00293, parental BG2, FKS mutant
[21] = strain no. 30, TGL00265, parental CST78, FKS mutant
[22] = strain no. 19, TGL00054, parental CST109, FKS2 mutant

Row | Structure (SMILES) | MIC (C. glabrata TGL00065; [8]) [µg/mL] | MIC [1, 9] [µg/mL] | MIC [2, 10] [µg/mL] | MIC (C. glabrata TGL00258; [11]) [µg/mL] | MIC (C. albicans CG72; [12]) [µg/mL] | MIC [3, 13] [µg/mL] | MIC (C. glabrata TGL00256; [14]) [µg/mL] | MIC [4, 15] [µg/mL] | MIC (C. albicans CAF2-1; [16]) [µg/mL] | MIC (C. glabrata CST78; [17]) [µg/mL] | MIC [5, 18] [µg/mL] | MIC (C. glabrata TGL00294; [19]) [µg/mL] | MIC (C. glabrata TGL00293; [20]) [µg/mL] | MIC (C. glabrata TGL00265; [21]) [µg/mL] | MIC (C. glabrata TGL00054; [22]) [µg/mL] | antifungal activity spectrum [6] | antifungal activity based on MIC values [6] | MIC values higher than the parent caspofungin [6] | other results
1 | CC[C@H](C)C[C@H](C)CCCCCCCCC(=O)N[C@H]1C[C@@H](O)[C@@H](NCCNC(=O)CCc2ccc3n2[B-](F)(F)[N+]2=C(C)C=C(C)C2=C3)NC(=O)[C@@H]2[C@@H](O)CCN2C(=O)[C@H]([C@H](O)CCN)NC(=O)[C@H]([C@H](O)[C@@H](O)c2ccc(O)cc2)NC(=O)[C@@H]2C[C@@H](O)CN2C(=O)[C@H]([C@@H](C)O)NC1=O [CSF-BOD] | >64 | 16 (≈ 11.7 µM) | 2 (≈ 1.46 µM) | >64 | 1 (≈ 0.731 µM) | >64 | 8 (≈ 5.85 µM) | 16 (≈ 11.7 µM) | 2 (≈ 1.46 µM) | 2 (≈ 1.46 µM) | >64 | >64 | >64 | >64 | >64 | identical to that of caspofungin | – | – | MIC values higher than those of caspofungin ([6]; against the responsive strains from the tested panel): 8-32 fold
2 | CC[C@H](C)C[C@H](C)CCCCCCCCC(=O)N[C@H]1C[C@@H](O)[C@@H](NCCN)NC(=O)[C@@H]2[C@@H](O)CCN2C(=O)[C@H]([C@H](O)CCN)NC(=O)[C@H]([C@H](O)[C@@H](O)c2ccc(O)cc2)NC(=O)[C@@H]2C[C@@H](O)CN2C(=O)[C@H]([C@@H](C)O)NC1=O [Caspofungin] | – | – | – | – | – | – | – | – | – | – | – | – | – | – | – | – | – | – | MIC (C. glabrata TGL00065; Nakaseomyces glabratus, TGL00065): > 64 µg/mL; MIC ([1]; Candida albicans): 1 µg/mL (≈ 0.915 µM); MIC ([2]; Nakaseomyces glabratus, strain no. 49, T-985 (11-076), clinical isolate, read-out: MIC): 0.125 µg/mL (≈ 0.114 µM); MIC (C. glabrata TGL00258; Nakaseomyces glabratus, TGL00258): > 64 µg/mL; MIC (C. albicans CG72; Candida albicans, strain no. 7, CG72, parental CAM, pKE1:GFP-YPT72, read-out: MIC): 0.031 µg/mL (≈ 0.0284 µM); MIC ([3]; Candida albicans, SC5314): 16 µg/mL (≈ 14.6 µM); MIC (C. glabrata TGL00256; Nakaseomyces glabratus, TGL00256): 1 µg/mL (≈ 0.915 µM); MIC ([4]; Candida albicans, SC5314): 4 µg/mL (≈ 3.66 µM); MIC (C. albicans CAF2-1; Candida albicans, SC5314): 0.063 µg/mL (≈ 0.0576 µM); MIC (C. glabrata CST78; Nakaseomyces glabratus, strain no. 26, C. glabrata CST78, read-out: MIC): 0.125 µg/mL (≈ 0.114 µM); MIC ([5]; Candida albicans): 16 µg/mL (≈ 14.6 µM); MIC (C. glabrata TGL00294; Nakaseomyces glabratus, TGL00294): 16 µg/mL (≈ 14.6 µM); MIC (C. glabrata TGL00293; Nakaseomyces glabratus, TGL00293): > 64 µg/mL; MIC (C. glabrata TGL00265; Nakaseomyces glabratus, TGL00265): > 64 µg/mL; MIC (C. glabrata TGL00054; Nakaseomyces glabratus, TGL00054): > 64 µg/mL; effect on the uptake of probe 1 [7]: reduced the uptake of probe 1 in a dose-dependent manner; cell viability, PI staining (C. albicans SC5314 cells; PBS): cells excluded the PI stain; cell viability, PI staining (C. albicans SC5314 cells; YPAD, after 15 min): viable; cell viability, PI staining (C. albicans SC5314 cells; YPAD, after 2 h): stained brightly with PI
3 | CC[C@H](C)C[C@H](C)CCCCCCCCC(=O)N[C@H]1C[C@@H](O)[C@@H](NCCN)NC(=O)[C@@H]2[C@@H](O)CCN2C(=O)[C@H]([C@H](O)CCN)NC(=O)[C@H]([C@H](O)[C@@H](O)c2ccc(OCc3cn(CCCNC(=O)c4ccc(-c5c6ccc(=[N+](C)C)cc-6oc6cc(N(C)C)ccc56)c(C(=O)[O-])c4)nn3)cc2)NC(=O)[C@@H]2C[C@@H](O)CN2C(=O)[C@H]([C@@H](C)O)NC1=O [Compound 1] | >64 | 16 (≈ 9.73 µM) | 1 (≈ 0.608 µM) | >64 | 0.5 (≈ 0.304 µM) | 64 (≈ 38.9 µM) | 4 (≈ 2.43 µM) | 16 (≈ 9.73 µM) | 0.5 (≈ 0.304 µM) | 1 (≈ 0.608 µM) | 64 (≈ 38.9 µM) | >64 | >64 | >64 | >64 | identical to that of caspofungin | retained antifungal activities | 4-16 | –
4 | C#CCOc1ccc([C@H](O)[C@@H](O)[C@@H]2NC(=O)[C@@H]3C[C@@H](O)CN3C(=O)[C@H]([C@@H](C)O)NC(=O)[C@@H](NC(=O)CCCCCCCC[C@@H](C)C[C@@H](C)CC)C[C@@H](O)[C@@H](NCCN)NC(=O)[C@@H]3[C@@H](O)CCN3C(=O)[C@H]([C@H](O)CCN)NC2=O)cc1 [Compound 1a] | >64 | 16 (≈ 14.1 µM) | 0.5 (≈ 0.442 µM) | >64 | 0.063 (≈ 0.0557 µM) | 16 (≈ 14.1 µM) | 2 (≈ 1.77 µM) | 8 (≈ 7.07 µM) | – | 0.5 (≈ 0.442 µM) | 32 (≈ 28.3 µM) | >64 | >64 | >64 | >64 | – | retained antifungal activities | 1-8 | –
5 | CC[C@H](C)C[C@H](C)CCCCCCCCC(=O)N[C@H]1C[C@@H](O)[C@@H](NCCN)NC(=O)[C@@H]2[C@@H](O)CCN2C(=O)[C@H]([C@H](O)CCN)NC(=O)[C@H]([C@H](O)[C@@H](O)c2ccc(OCc3cn(CCCNc4ccc([N+](=O)[O-])c5nonc45)nn3)cc2)NC(=O)[C@@H]2C[C@@H](O)CN2C(=O)[C@H]([C@@H](C)O)NC1=O [Compound 2] | >64 | 64 (≈ 45.9 µM) | 4 (≈ 2.87 µM) | >64 | 1 (≈ 0.717 µM) | 64 (≈ 45.9 µM) | 64 (≈ 45.9 µM) | 32 (≈ 22.9 µM) | 1 (≈ 0.717 µM) | 4 (≈ 2.87 µM) | >64 | >64 | >64 | >64 | >64 | identical to that of caspofungin | retained antifungal activities | 16-16 | –
6 | CN(C)c1ccc2c(-c3ccc(C(=O)NCCCN=[N+]=[N-])cc3C(=O)[O-])c3ccc(=[N+](C)C)cc-3oc2c1 [Compound 5-TMR-azide] | >64 | >64 | – | >64 | – | >64 | >64 | >64 | >64 | – | >64 | >64 | >64 | >64 | >64 | – | – | – | MIC [2]: >64 µg/mL; MIC (C. albicans CG72): >64 µg/mL; MIC (C. glabrata CST78): >64 µg/mL
